Values after ≈ are worked out from the molar mass of the structure shown. Where two headings read alike, the source gives them in different places.
Key:
Vero cell proliferation = format: cell-based; settings: monkey, vero cells; read-out: IC50 (Vero cell proliferation)
Description: Formula (ii) compounds are those compounds of formula (I) wherein R13 is --O--bonded to R14 and R14 is --CHORa --, Ra being hydrogen, C1-4 alkyl, or formula (a). Formula (ii) compounds may be obtained according to Example 7. […] In general, inhibition of a microbial infection means inhibiting microbial growth, relative to an untreated control, by at least 30%, and preferably by 50% or 75%. Cytotoxicity assays utilized the same dye as a marker of cell viability.

A. fumigatus = experiment: Inhibition of Aspergillus spp. culture (broth microdilution, XTT); format: cell-based, Aspergillus fumigatus (strain ATCC#8001); settings: 48 hours at 37° C.
Method: (§1) Formulae (i) was isolated as described in Example 1. Plant material was collected in Zimbabwe. A voucher specimen is deposited at the Institute of Pharmacognosy and Phytochemistry, University of Lausanne, Lausanne, Switzerland. Antimicrobial assays are performed by a modification of the broth microdilution susceptibility assay using the tetrazolium salt XTT (Examples 2-6, see summary of results in Table 1 below).
Aspergillus fumigatus (strain ATCC#8001) was subcultured from a refrigerated potato dextrose agar slant (immersed in mineral oil) onto a fresh potato dextrose agar slant. After 72 hours of incubation at 37° C., the slants were filled with 7 mL sterile, cold, distilled water and put on ice for 2 hours. After disrupting the tissue, spores were filtered through sterile gauze using a 30 cc syringe. The resulting mixture was centrifuged for 10 minutes at 2,000 rpm. The supernatant was discarded and the pellet was resuspended in 5 mL sterile, distilled water. […] Growth was assessed spectrophotometrically by measuring the appearance of soluble formazan stain at 450/650 nm using an Emax micro plate reader. Validation of the assay was confirmed by determination of the A. fumigatus minimum inhibitory concentration (MIC) for amphotericin B. MICs were also scored visually.

C. krusei = experiment: Inhibition of Candida spp. culture (broth microdilution, XTT); format: cell-based, Candida krusei (strain ATCC #90030); settings: Pichia kudriavzevii, 22 hours at 35° C.
Method: as §1
(§2) Candida albicans (strain ATCC #90028), Candida krusei (strain ATCC #90030), and Torulopsis (Candida) glabrata (strain ATCC #6258) were subcultured from cryopreserved stocks onto sabourand dextrose agar plates. Blastoconidia were suspended into RPMI-MOPS (media) and inoculated (500 CFW/well) into 96-well plates containing test compounds in a final volume of 100 μL/well. After 22 hours at 35° C., 25 μL of XTT (2,3-bis(2-methoxy-4-nitro-5-sulfophenyl)-5-[(phenylamino)carbonyl]-2H-tetrazolium hydroxide), (100 μg/mL) with PMS (phenazine methyl sulfate, 5 μM) were added to each well, followed by 2 hours of shaking. Growth was assessed spectrophotometrically by measuring the appearance of soluble formazan stain at 450 nm using an Emax microplate reader.

C. albicans = experiment: as above; format: cell-based, Candida albicans (strain ATCC #90028); settings: for minimum inhibitory concentration (MIC) for known antifungal agents: assay validation, result in words
Method: as §1, §2

S. aureus = experiment: Inhibition of Staphylococcus aureus culture; format: cell-based; settings: 24 hours at 35° C.
Method: as §1
Strains of Staphylococcus aureus were subcultured from cryopreserved stocks onto sheep blood agar plates (methicillin-sensitive reference strain ATCC #29213. Methicillin-resistant (MRSA) clinical isolate was obtained from Dr. Gary Doern, Director of Clinical Microbiology, University of Massachusetts Medical Center, Worcester, Mass.). Bacteria were suspended in Mueller Hinton broth and inoculated (5×10^4 CFU/well) into 96-well plates containing test compounds in a final volume of 100 μL/well. After 24 hours at 35° C., plates were shaken for 1 minute and turbidity was read manually at 650 nm using a Emax microplate reader (Molecular Devices, Sunnyvale, Calif. The MIC values of vancomycin and gentamicin in this screening assay are determined to be approximately 1 μg/mL and 0.6 μg/mL, respectively, well within the reported ranges (National Committee on Clinical Laboratory Standards Vol. 14, No. 16, 1994, Table 3).

Epidermophyton floccosum = experiment: Inhibition of dermatophytes; format: cell-based; settings: E. floccosum, 96 hours, 1 isolate
Method: (§3) The in vitro activity of formula (I) against the dermatophytes Trichophyton rubrum, Trichophyton mentagrophytes, and Epidermophyton floccosum was measured. The data were collected after incubating for 96 hours.

Trichophyton rubrum = experiment: Inhibition of dermatophytes; format: cell-based; settings: T. rubrum, 96 hours, 10 isolates
Method: as §3

[1] = test system: Trichophyton mentagrophytes; experiment: Inhibition of dermatophytes; format: cell-based; settings: T. mentagrophytes, 96 hours, 13 isolates
Method: as §3

T. glabrata = experiment: Inhibition of Candida spp. culture (broth microdilution, XTT); format: cell-based, Torulopsis (Candida) glabrata (strain ATCC #6258); settings: Nakaseomyces glabratus, 22 hours at 35° C.
Method: as §1, §2

[2] = test system: Candida albicans strain # 64; experiment: In vivo efficacy against fluconazole-sensitive candidiasis in mice; design: species or system ICR mice infected with Candida albicans
Method: Immunocompetent mice (ICR, Sprague-Dawley, Indianapolis, IN) were infected with a pathogenic strain (# 64) of Candida albicans which is sensitive to fluconazole. After 24 hours, dissemination of infection was shown by organ colony counts (kidney, spleen, and liver) greater than 10^5 CFU. Treatment began 24 hours after infection with the indicated dosage once a day for 10 days. One group received 20 mg/kg of the compound administered via oral gavage in 0.1 mL. The test compound was formulated in 40% polyethyleneglycol (MW 400). Another group received 40 mg/kg of th compound, administered as above. A third group received polyethylene glycol, and the last group received fluconazole dosed orally at 40 mg/kg twice a day.
After 30 days the percent survival in the group treated with fluconazole and the group treated with test compound (40 mg per kg body weight, twice a day) was measured. In addition, the organ fungal load was measured at days 1, 10, and 30.

[3] = Candida albicans, 22 hours at 35° C.
[4] = Staphylococcus aureus, read-out: MIC

CC1=C(CCO)C(=O)C(O)=C2C1=CC(=O)[C@@H]1C(C)(C)CCC[C@@]21C (relative stereo) [Formula (i), (4bR*,8aR*)-4b,5,6,7,8,8a-hexahydro-4-hydroxy-4b,8,8,1-tetramethyl-2-(2-hydroxy-ethyl) -3,9-phenanthrenedione]
CC50 (Vero cell proliferation): 12.7 µg/mL | IC50 (A. fumigatus): 6.49 µg/mL | MIC (A. fumigatus): 6.25 µg/mL | IC50 (C. krusei): 0.55 µg/mL | MIC (C. krusei): 1.56 µg/mL | IC50 (C. albicans; [3]): 0.12 µg/mL | MIC (C. albicans; [3]): 0.78 µg/mL | MIC (S. aureus; [4]): 1.56 µg/mL | MIC (Epidermophyton floccosum): 4 µg/mL | MIC (Trichophyton rubrum; read-out: MIC range): 2 to 8 µg/mL | MIC (Trichophyton rubrum; read-out: average MIC): 5 µg/mL | MIC ([1]; read-out: MIC range): 0.5 to 8 µg/mL | MIC ([1]; read-out: average MIC): 2.7 µg/mL | IC50 (T. glabrata): 0.44 µg/mL | MIC (T. glabrata): 1.65 µg/mL

CC1=C(CCO)C(=O)C(O)=C2C1=CC(=O)[C@H]1C(C)(C)CCC[C@]21C (relative stereo) [test compound]
dose response of the effect ([2]; 20 and 40 mg/kg oral gavage): dose-responsive | fungal organ burdens in the kidney, liver, and spleen ([2]; after 10 days, either concentration of the test compound, vs mice treated with fluconazole): less than or equal to one half the burdens in the same organs of mice treated with fluconazole | median survival ([2]; oral gavage once a day for 10 days, vehicle control 7 days, p=0.0018 log rank test): 17.5 days

Nc1nc(=O)[nH]cc1F [5-flucytosine]
minimum inhibitory concentration (MIC) for known antifungal agents (C. albicans): within reported ranges

C[C@@H]1[C@H](O)[C@@H](C)/C=C/C=C/C=C/C=C/C=C/C=C/C=C/[C@H](O[C@@H]2O[C@H](C)[C@@H](O)[C@H](N)[C@@H]2O)C[C@@H]2O[C@](O)(C[C@@H](O)C[C@@H](O)[C@H](O)CC[C@@H](O)C[C@@H](O)CC(=O)O[C@H]1C)C[C@H](O)[C@H]2C(=O)O [amphotericin B]
minimum inhibitory concentration (MIC) for known antifungal agents (C. albicans): within reported ranges

OC(Cn1cncn1)(Cn1cncn1)c1ccc(F)cc1F [fluconazole]
minimum inhibitory concentration (MIC) for known antifungal agents (C. albicans): within reported ranges

C[C@@H]([C@H](N)C(=O)N[C@H](C(=O)O)[C@H]1O[C@@H](n2ccc(=O)[nH]c2=O)[C@H](O)[C@@H]1O)[C@H](O)c1ccc(O)cn1 [nikkomycin Z]
minimum inhibitory concentration (MIC) for known antifungal agents (C. albicans): within reported ranges

NC(=O)OC[C@H](O)[C@@H](O)[C@H](N)C(=O)N[C@H](C(=O)O)[C@H]1O[C@@H](n2cc(C(=O)O)c(=O)[nH]c2=O)[C@H](O)[C@@H]1O [polyoxin D]
minimum inhibitory concentration (MIC) for known antifungal agents (C. albicans): within reported ranges

CN[C@H](CC(C)C)C(=O)N[C@H]1C(=O)N[C@@H](CC(N)=O)C(=O)N[C@H]2C(=O)N[C@H]3C(=O)N[C@H](C(=O)N[C@H](C(=O)O)c4cc(O)cc(O)c4-c4cc3ccc4O)[C@H](O)c3ccc(c(Cl)c3)Oc3cc2cc(c3O[C@@H]2O[C@H](CO)[C@@H](O)[C@H](O)[C@H]2O[C@H]2C[C@](C)(N)[C@H](O)[C@H](C)O2)Oc2ccc(cc2Cl)[C@H]1O [vancomycin]
MIC (S. aureus; [4]): ~1 µg/mL (≈ 0.69 µM)

gentamicin
MIC (S. aureus): ~0.6 µg/mL

From patent US5929124A, “Antimicrobial diterpenes” (priority 1997, dated 1999)
